Measurements: patent US20240300932A1, “N-PHENYLIMINE DERIVATIVE AND PREPARATION METHOD AND USE THEREOF” (Guizhou University, priority 2023, published 2024)

How the values were obtained:
Abutilon theophrasti = experiment: Post-emergence herbicidal activity test (stem and leaf spray, pot culture); type: in vivo; conditions: dosage 10 g/mu, 3 weeks after spraying
How it was run: (§1)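 Greenhouse pot-grown weeds (loam, pH 7) sprayed post-emergence at 2- to 3-leaf stage with acetone/Tween 80 formulation plus 1.5 liters/ha methyl oleate, at 10, 5 and 2.5 g/mu. Fresh-weight growth control rated 3 weeks later on 0–5 grade scale.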

Amaranthus retroflexus = experiment: as above; type: in vivo; conditions: dosage 10 g/mu, 3 weeks after spraying
How it was run: as §1

Echinochloa crusgalli = experiment: as above; type: in vivo; conditions: dosage 10 g/mu, 3 weeks after spraying
How it was run: as §1

Portulaca oleracea = experiment: as above; type: in vivo; conditions: dosage 10 g/mu, 3 weeks after spraying
How it was run: as §1

Setaria viridis = experiment: as above; type: in vivo; conditions: dosage 10 g/mu, 3 weeks after spraying
How it was run: as §1

Trifoliumre pensL. = experiment: Post-emergence herbicidal activity test (stem and leaf spray, pot culture); type: in vivo; conditions: dosage 10 g/mu, 3 weeks after spraying
How it was run: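 Pot-grown weeds in loam (pH 7), greenhouse at 20–30 °C, sprayed once post-emergence at the 2–3-leaf stage. Compound in acetone with Tween 80 plus methyl oleate oil (1.5 L/ha), applied at 10, 5 and 2.5 g/mu by spray tower. Effect scored 3 weeks after spraying, averaged over three repeats.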

broad-leaf weeds = experiment: Post-emergence herbicidal activity test, broad-leaf weeds as a group; type: in vivo; conditions: 10 a.i.g/mu
Protocol: The weeds were cultivated in a 180 mm×140 mm plastic nutrient pot by a pot-culture method, placed in an enamel tray, and the plastic nutrient pots were filled with surface soil (⅘ of a depth) collected from a farmland and air-dried and sieved, and a soil humidity was controlled at 20% in the initial stage. Weed seeds with plump and uniform grains were selected, soaked in warm water at 25° C. for 6 h, and germinated in a biochemical incubator (dark) at 28° C. The freshly exposed weed seeds were evenly placed on the soil surface, and then covered with 0.5 cm to 1 cm of soil according to the size of the seeds. The weeds are cultivated in a controlled sunlight greenhouse at 20° C. to 30° C., under natural light, and a relative humidity of 57% to 72%. […]
2 weeks after sowing, the test plants were treated at the 2- to 3-leaf stage: the compounds of the present disclosure for testing were dissolved in acetone separately, and added with Tween 80, an emulsifiable oil of 1.5 liters/ha methyl oleate was added as a synergist, and an obtained mixture was diluted with certain water to a certain concentration solution. […] After spraying, the weeds were cultivated in the greenhouse for 3 weeks, and the experimental effects on the weeds were counted. […]

| SMILES | melting point [°C] | Post-emergence herbicidal activity, A. theophrasti (grade) (Abutilon theophrasti) | Post-emergence herbicidal activity, A. retroflexus (grade) (Amaranthus retroflexus) | Post-emergence herbicidal activity, E. crusgalli (grade) (Echinochloa crusgalli) | Post-emergence herbicidal activity, P. oleracea (grade) (Portulaca oleracea) | Post-emergence herbicidal activity, S. viridis (grade) (Setaria viridis) | Post-emergence herbicidal activity, Trifoliumre pensL. (grade) (Trifoliumre pensL.) | control effect against broad-leaf weeds (broad-leaf weeds) [%] |
| --- | --- | --- | --- | --- | --- | --- | --- | --- |
| CC(=O)Nc1cc(N2C(=O)C3=C(CCCC3)C2=O)c(F)cc1Cl [Compound D1, N-(2-chloro-5-(1,3-dioxo-1,3,4,5,6,7-hexahydro-2H-isoindole-2-yl)-4-fluorophenyl)acetamide] | 155 to 157 | 5 (Grade 5: the growth control rate is greater than or equal to 85%) | 5 (Grade 5: the growth control rate is greater than or equal to 85%) | 3 (Grade 3: the growth control rate is greater than or equal to 40% and less than 60%) | 5 (Grade 5: the growth control rate is greater than or equal to 85%) | 4 (Grade 4: the growth control rate is greater than or equal to 60% and less than 85%) | 5 (Grade 5: the growth control rate is greater than or equal to 85%) |  |
| C/C=C/C(=O)Nc1cc(N2C(=O)C3=C(CCCC3)C2=O)c(F)cc1Cl [Compound D5, (E)-N-(2-chloro-5-(1,3-dioxo-1,3,4,5,6,7-hexahydro-2H-isoindole-2-yl)-4-fluorophenyl)but-2-enamide] | 133 to 138 | 5 (Grade 5: the growth control rate is greater than or equal to 85%) | 5 (Grade 5: the growth control rate is greater than or equal to 85%) | 3 (Grade 3: the growth control rate is greater than or equal to 40% and less than 60%) | 5 (Grade 5: the growth control rate is greater than or equal to 85%) | 4 (Grade 4: the growth control rate is greater than or equal to 60% and less than 85%) | 5 (Grade 5: the growth control rate is greater than or equal to 85%) |  |
| O=C(Nc1cc(N2C(=O)C3=C(CCCC3)C2=O)c(F)cc1Cl)C1CC1 [Compound D8, N-(2-chloro-5-(1,3-dioxo-1,3,4,5,6,7-hexahydro-2H-isoindole-2-yl)-4-fluorophenyl)cyclopropanecarboxamide] | 208 to 210 | 5 (Grade 5: the growth control rate is greater than or equal to 85%) | 5 (Grade 5: the growth control rate is greater than or equal to 85%) | 3 (Grade 3: the growth control rate is greater than or equal to 40% and less than 60%) | 5 (Grade 5: the growth control rate is greater than or equal to 85%) | 3 (Grade 3: the growth control rate is greater than or equal to 40% and less than 60%) | 5 (Grade 5: the growth control rate is greater than or equal to 85%) |  |
| O=C(Nc1cc(N2C(=O)C3=C(CCCC3)C2=O)c(F)cc1Cl)C1CCC1 [Compound D9, N-(2-chloro-5-(1,3-dioxo-1,3,4,5,6,7-hexahydro-2H-isoindole-2-yl)-4-fluorophenyl)cyclobutanecarboxamide] | 145 to 147 | 5 (Grade 5: the growth control rate is greater than or equal to 85%) | 5 (Grade 5: the growth control rate is greater than or equal to 85%) | 3 (Grade 3: the growth control rate is greater than or equal to 40% and less than 60%) | 5 (Grade 5: the growth control rate is greater than or equal to 85%) | 3 (Grade 3: the growth control rate is greater than or equal to 40% and less than 60%) | 5 (Grade 5: the growth control rate is greater than or equal to 85%) |  |
| O=C(Nc1cc(N2C(=O)C3=C(CCCC3)C2=O)c(F)cc1Cl)C1CCCCC1 [Compound D10, N-(2-chloro-5-(1,3-dioxo-1,3,4,5,6,7-hexahydro-2H-isoindole-2-yl)-4-fluorophenyl)cyclohexanecarboxamide] | 93 to 97 | 5 (Grade 5: the growth control rate is greater than or equal to 85%) | 5 (Grade 5: the growth control rate is greater than or equal to 85%) | 3 (Grade 3: the growth control rate is greater than or equal to 40% and less than 60%) | 5 (Grade 5: the growth control rate is greater than or equal to 85%) | 4 (Grade 4: the growth control rate is greater than or equal to 60% and less than 85%) | 5 (Grade 5: the growth control rate is greater than or equal to 85%) |  |
| C#CCN1C(=O)COc2cc(F)c(N3C(=O)C4=C(CCCC4)C3=O)cc21 [flumioxazin] |  |  |  |  |  |  |  | 100 |

More lines, main results first:

| melting point [°C] | SMILES | Post-emergence herbicidal activity, A. theophrasti (grade) (Abutilon theophrasti) | Post-emergence herbicidal activity, A. retroflexus (grade) (Amaranthus retroflexus) | Post-emergence herbicidal activity, E. crusgalli (grade) (Echinochloa crusgalli) | Post-emergence herbicidal activity, P. oleracea (grade) (Portulaca oleracea) | Post-emergence herbicidal activity, S. viridis (grade) (Setaria viridis) | Post-emergence herbicidal activity, Trifoliumre pensL. (grade) (Trifoliumre pensL.) | control effect against broad-leaf weeds (broad-leaf weeds) [%] |
| --- | --- | --- | --- | --- | --- | --- | --- | --- |
| 138 to 141 | O=C(COC(=O)c1cc(N2C(=O)C3=C(CCCC3)C2=O)c(F)cc1Cl)c1ccc(Cl)cc1 [Compound E1, 2-(4-chlorophenyl)-2-oxoethyl-2-chloro-5-(1,3-dioxo-1,3,4,5,6,7-hexahydro-2H-isoindole-2-yl)-4-fluorobenzoate] | 5 (Grade 5: the growth control rate is greater than or equal to 85%) | 5 (Grade 5: the growth control rate is greater than or equal to 85%) | 3 (Grade 3: the growth control rate is greater than or equal to 40% and less than 60%) | 5 (Grade 5: the growth control rate is greater than or equal to 85%) | 4 (Grade 4: the growth control rate is greater than or equal to 60% and less than 85%) | 5 (Grade 5: the growth control rate is greater than or equal to 85%) |  |
| 133 to 136 | O=C(COC(=O)c1cc(N2C(=O)C3=C(CCCC3)C2=O)c(F)cc1Cl)c1ccccc1 [Compound E2, 2-oxo-2-phenylethyl-2-chloro-5-(1,3-dioxo-1,3,4,5,6,7-hexahydro-2H-isoindole-2-yl)-4-fluorobenzoate] | 5 (Grade 5: the growth control rate is greater than or equal to 85%) | 5 (Grade 5: the growth control rate is greater than or equal to 85%) | 3 (Grade 3: the growth control rate is greater than or equal to 40% and less than 60%) | 5 (Grade 5: the growth control rate is greater than or equal to 85%) | 4 (Grade 4: the growth control rate is greater than or equal to 60% and less than 85%) | 4 (Grade 4: the growth control rate is greater than or equal to 60% and less than 85%) |  |
